Measured values from PubChem BioAssay (NCI).
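Grown in 96-well plates, cells were treated for 48 hours with each compound at five concentrations. Insufficient inhibition: endpoint recorded as highest concentration tested. At the TGI there is no net growth.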

How the values were obtained:
Assay in all cases: NCI anticancer screen, dose series, 48 h
786-0 renal = system: 786-0 renal
ACHN renal = system: ACHN renal
BT-549 breast = system: BT-549 breast
DU-145 prostate = system: DU-145 prostate
HOP-62 NSCLC = system: HOP-62 NSCLC
HOP-92 NSCLC = system: HOP-92 NSCLC
HT29 colon = system: HT29 colon
IGROV1 ovarian = system: IGROV1 ovarian
M14 melanoma = system: M14 melanoma
MDA-N = system: MDA-N
NCI/ADR-RES ovarian = system: NCI/ADR-RES ovarian
OVCAR-4 ovarian = system: OVCAR-4 ovarian
OVCAR-8 ovarian = system: OVCAR-8 ovarian
SF-539 CNS = system: SF-539 CNS
SK-MEL-5 melanoma = system: SK-MEL-5 melanoma
SN12C renal = system: SN12C renal
SR leukemia = system: SR leukemia
UACC-62 melanoma = system: UACC-62 melanoma

SMILES	TGI (786-0 renal) [µM]	TGI (ACHN renal) [µM]	TGI (BT-549 breast) [µM]	TGI (DU-145 prostate) [µM]	TGI (HOP-62 NSCLC) [µM]	TGI (HOP-92 NSCLC) [µM]	TGI (HT29 colon) [µM]	TGI (IGROV1 ovarian) [µM]	TGI (M14 melanoma) [µM]	TGI (MDA-N) [µM]	TGI (NCI/ADR-RES ovarian) [µM]	TGI (OVCAR-4 ovarian) [µM]	TGI (OVCAR-8 ovarian) [µM]	TGI (SF-539 CNS) [µM]	TGI (SK-MEL-5 melanoma) [µM]	TGI (SN12C renal) [µM]	TGI (SR leukemia) [µM]	TGI (UACC-62 melanoma) [µM]
c1ccc2sc(C3(N4CCCCC4)CCCC3)cc2c1	28.9	21	27.5	24	28.8	25.4	13.5	23.6	33.1	35.1	24.8	23.7	24.7	31.7	22.9	33.1	22.3	29.4
CCCCCCCCCCCCCCCCP(=O)(O)OP(=O)(O)OCC1OC(n2cnc3c(N)ncnc32)C(O)C1O (centres undefined)	53.2	62.1	> 100	> 100	37.3	42	43.8	35.9	56.7	> 100	98.6	> 100	43.9	43.5	> 100	59.5	> 100	69.2
CC1(C)C(=O)N=C(N)N1C(=O)OCc1ccccc1	> 100	> 100	> 100	> 100	> 100	> 100	> 100	> 100	> 100	> 100	> 100	> 100	> 100	> 100	> 100	> 100	> 100	> 100
